Results from patent US20110245334A1, “USE OF RACEMATES OF PINOCEMBRIN IN PREPARING MEDICAMENTS FOR TREATING STROKE” (CSPC Zhonggi Pharmaceutical Technology (Shijiazhuang) Co. …, priority 2008, published 2011).

Columns and labels:
Format in all cases: in vivo, rat
MCAO rats [1] = test: Regional cerebral blood flow (LDF), MCAO; settings: 3 mg/kg
Excerpt: The rats were fixed pronely on the stereotaxic apparatus and subjected to craniotomy. After cleaning for operation visual field, bregma was used as an origin, and a site situated 2 mm behind and 3 mm right to the bregma was selected as a measuring point. The region […] around the site was thinned by a dental drill. In the process, the integrity of dura was maintained and large vessels were avoided. Probe holder was located and fixed.
The rats were supinely fixed on the operating table to carry out MCAO surgery. When a nylon line was inserted in ICA, it was not inserted into intracranial part until LDF value was stable, and blood flow value in 10 min was recorded, and an average value thereof is used as a baseline value of cerebral blood flow. After the MCAO surgery completed, the nylon line was inserted into the intracranial part. When the blood flow value suddenly declined to 20-30% of the baseline value, it was noted that the blood flow in MCA had been blocked. The blood flow value before MCAO in every group was used as a baseline value (100%) of the group. […] LDF value was determined at the same site before the animals was put to death.

MCAO rats [2] = test: Neurobehavioral examination (Bederson's score), MCAO acute ischemic stroke; settings: 3 mg/kg
Method: Experimental animals: 100 male SD rats with a body weight of 250-280 g were purchased from the Experimental Animals Institute of the Chinese Academy of Medical Science. The rats were grouped randomly as a sham operation group, a model group, pinocembrin groups and a nimodipine group (3 mg/kg).
Experimental model: the model of acute ischemic stroke was made by middle cerebral artery occlusion (MCAO).
The string occlusion method in middle cerebral artery as established by Zea Longa was adopted with proper improvements. 400 mg/kg 10% chloral hydrate was intraperitoneally injected in rats. The external carotid artery (ECA) was separated and ligated at the site where the artery emitted for about 0.8 cm. The end of ECA closing to the heart was clipped by an artery clip. A 2 mm V-shaped incision was made from ECA ligation to ECA bifurcation. A nylon line was inserted gently into […] and then into internal carotid artery (ICA) through the bifurcation of ECA and ICA after loosening the artery clip. The nylon line was pushed into the brain through ICA and inserted in depth of 18.5±0.5 mm when resistance was felt slightly. The nylon line should reach smaller anterior cerebral artery through the beginning of middle cerebral artery (MCA) and ICA could be ligated and sutured. Stump of the nylon line should be reserved with 1 cm outside the skin.
Neurobehavioral examination was performed before the animals were put to death. The rats were raised off the ground for about 1 chi (1 chi=⅓ meter) to observe the state of two forelimbs. The rats were placed on the ground and were pushed by their shoulders to observe differences of their resistance. The rats were placed on the ground and were observed by the way of walking. Four-stage scoring method […] was adopted. The higher the score was, the more serious injury existed in their neurobehavior.
Bederson's scoring standard:
(1) If the rats acted completely normal, score 0 was recorded.
(2) When the rats were raised off the ground, if the rats rotated or retracted forelimb of surgery-contralateral side internally, score 1 was recorded.
(3) When the rats were placed on the ground and squeezed with the hand to examine the resistance of both sides, if the resistance of surgery-contralateral side declined, score 2 was recorded.
(4) When the rats were placed on the ground to observe the way of walking, if the rats circled around the surgery-contralateral side, score 3 was recorded.
(5) If the rats were injured too seriously to move by themselves, score 4 was recorded.

tMCAO rats = test: Infarct volume (TTC), tMCAO time window study; settings: 2 hours ischemia and 24 hours reperfusion, 1 mg/kg, 3 h
Method: 1. In the test, transient middle cerebral artery occlusion (tMCAO) model of rats was adopted. The reperfusion was performed after focal cerebral ischemia for 2 hours so as to inspect therapeutic time window of pinocembrin after focal cerebral ischemia. The rats were administered by pinocembrin racemate (1 mg/kg, 5 mg/kg, intravenous injection) after reperfusion 1 hour, 4 hours and 6 hours (i.e., ischemia 3 hour, 6 hours and 8 hours). (R)-pinocembrin and (S)-pinocembrin (1 mg/kg, 5 mg/kg, intravenous injection) were administered after reperfusion 1 hour and 4 hours (i.e., ischemia 3 hour and 6 hours). The therapeutic time windows of these drugs in focal cerebral ischemia were assessed by studying their effects to neurological symptom scores, infarct sizes and brain water contents during 24 hours after tMCAO.
2.4 Experimental Grouping and Administration • Sham operation group (intravenous injection of normal saline after 3 hours of ischemia); • Model group (intravenous injection of 50 mg/kg hydroxypropyl β-cyclodextrin after 3 hours of ischemia); • Nimodipine group (1 mg/kg, administered after 3 hours of ischemia); • Pinocembrin racemate group (1 mg/kg, 5 mg/kg, administered after 3, 6 and 8 hours of ischemia); • (R)-pinocembrin group (1 mg/kg, 5 mg/kg, administered after 3 and 6 hours of ischemia); • (S)-pinocembrin group (1 mg/kg, 5 mg/kg, administered after 3 and 6 hours of ischemia).
First administration was performed by intravenous injection, and intraperitoneal injection was carried out once 12 hours later with a dose 1.5 times of that for intravenous injection.
After neurobehavioral scoring, the rats were put to death by decollation and their brain tissues were taken out quickly and put into a refrigerator of −20° C. 10 min later, the brain tissues were moved to an environment of room temperature. After the olfactory bulb, cerebellar and lower brain stem were resected, the brain tissue was cut into six continuous coronal slices with an interval of 2 mm. Then the brain slices were quickly put into 5 ml solution containing 2% TTC and incubated at a constant temperature of 37° C. and in a condition of darkness for 30 min. During the time, the brain slices were tipped every 5 min. […] Every group of brain slices were put in order and photographed. The photographs were processed by an image analysis system and the infarct areas in each slice were calculated. The infarct volume of each slice was calculated via multiplying the infarct area by thickness of slice (2 mm), and the infarct volume was the sum of infarct volumes of all slices. The infarct volume percentage was expressed as: sick-side infarct volume/total sick-side brain volume.

In the case of `COCCOC(=O)C1=C(C)NC(C)=C(C(=O)OC(C)C)C1c1cccc([N+](=O)[O-])c1` (stereo not drawn) [Nimodipine, reference compound], the “regional cerebral blood flow (rCBF)” value (MCAO rats [1]; time point 10 min) is reported as 99.91 ± 7.27 % of baseline value, the “regional cerebral blood flow (rCBF)” value (MCAO rats [1]; time point 20 min) is reported as 32.98 ± 8.09 % of baseline value and the “regional cerebral blood flow (rCBF)” value (MCAO rats [1]; time point 30 min) is reported as 55.58 ± 6.09 % of baseline value. The “regional cerebral blood flow (rCBF)” value (MCAO rats [1]; time point 30 min, listed as nimodipine) was 55.58±6.09 % of baseline value, the “regional cerebral blood flow (rCBF)” value (MCAO rats [1]; time point 40 min) was 67.96 ± 7.81 % of baseline value and the “regional cerebral blood flow (rCBF)” value (MCAO rats [1]; time point 50 min) was 66.59 ± 9.08 % of baseline value. For the same molecule, the “regional cerebral blood flow (rCBF)” value (MCAO rats [1]; time point 60 min) was 64.09 ± 8.03 % of baseline value, the “regional cerebral blood flow (rCBF)” value (MCAO rats [1]; time point 70 min) was 65.72 ± 8.58 % of baseline value and the “regional cerebral blood flow (rCBF)” value (MCAO rats [1]; time point 80 min) was 64.98 ± 6.25 % of baseline value. For the same molecule, the “regional cerebral blood flow (rCBF)” value (MCAO rats [1]; time point 90 min) was 63.99 ± 6.09 % of baseline value, the “regional cerebral blood flow (rCBF)” value (MCAO rats [1]; time point 100 min) was 67.01 ± 5.67 % of baseline value and the “regional cerebral blood flow (rCBF)” value (MCAO rats [1]; time point 110 min) was 63.07 ± 6.1 % of baseline value. The “regional cerebral blood flow (rCBF)” value (MCAO rats [1]; time point 120 min) was 61.85 ± 7.14 % of baseline value, the “regional cerebral blood flow (rCBF)” value (MCAO rats [1]; time point 130 min) was 67.12 ± 8.09 % of baseline value and the “regional cerebral blood flow (rCBF)” value (MCAO rats [1]; time point 140 min) was 65.89 ± 6.81 % of baseline value. For the same molecule, the “regional cerebral blood flow (rCBF)” value (MCAO rats [1]; time point 150 min) was 61.8 ± 8.08 % of baseline value, the “regional cerebral blood flow (rCBF)” value (MCAO rats [1]; time point 160 min) was 63.47 ± 9.03 % of baseline value and the “regional cerebral blood flow (rCBF)” value (MCAO rats [1]; time point 170 min) was 65.9 ± 7.58 % of baseline value. The “regional cerebral blood flow (rCBF)” value (MCAO rats [1]; time point 180 min) was 66.08 ± 6.89 % of baseline value, the “Bederson's score” value (MCAO rats [2]) was 2.5 ± 0.7 and the “Infarct percentage (%)” value (tMCAO rats) was 31.30 ± 10.31%.
